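1) Cells in 96-well plates. 2) Compound, 48 h, 5 concentrations. 3) Linear interpolation between surrounding doses. 4) Unreached endpoint = highest concentration. The concentration for 50% growth inhibition is given as GI50. TGI marks complete inhibition of growth.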
Experiments:
Experiment in all cases: NCI-60 cell line screen, 48 h
NCI-H522 lung = test system: NCI-H522 lung
HT29 colon = test system: HT29 colon
NCI/ADR-RES ovarian = test system: NCI/ADR-RES ovarian
NCI-H226 lung = test system: NCI-H226 lung
SF-295 CNS = test system: SF-295 CNS
OVCAR-4 ovarian = test system: OVCAR-4 ovarian
T-47D breast = test system: T-47D breast
SN12C renal = test system: SN12C renal
NCI-H460 lung = test system: NCI-H460 lung
PC-3 prostate = test system: PC-3 prostate
SR leukemia = test system: SR leukemia
MALME-3M melanoma = test system: MALME-3M melanoma
SNB-19 CNS = test system: SNB-19 CNS
TK-10 renal = test system: TK-10 renal
ACHN renal = test system: ACHN renal
CCRF-CEM leukemia = test system: CCRF-CEM leukemia
UO-31 renal = test system: UO-31 renal
KM12 colon = test system: KM12 colon
OVCAR-5 ovarian = test system: OVCAR-5 ovarian
IGROV1 ovarian = test system: IGROV1 ovarian
HL-60(TB) leukemia = test system: HL-60(TB) leukemia
M14 melanoma = test system: M14 melanoma
UACC-257 melanoma = test system: UACC-257 melanoma
SF-539 CNS = test system: SF-539 CNS
SW-620 colon = test system: SW-620 colon
NCI-H23 lung = test system: NCI-H23 lung
MOLT-4 leukemia = test system: MOLT-4 leukemia
SK-MEL-2 melanoma = test system: SK-MEL-2 melanoma
DU-145 prostate = test system: DU-145 prostate
SF-268 CNS = test system: SF-268 CNS
OVCAR-3 ovarian = test system: OVCAR-3 ovarian
SK-MEL-5 melanoma = test system: SK-MEL-5 melanoma
BT-549 breast = test system: BT-549 breast
SK-MEL-28 melanoma = test system: SK-MEL-28 melanoma
HS 578T breast = test system: HS 578T breast
SK-OV-3 ovarian = test system: SK-OV-3 ovarian
HCT-15 colon = test system: HCT-15 colon
EKVX NSCLC = test system: EKVX NSCLC
SNB-75 CNS = test system: SNB-75 CNS
HOP-92 NSCLC = test system: HOP-92 NSCLC
MDA-MB-435 = test system: MDA-MB-435
UACC-62 melanoma = test system: UACC-62 melanoma
A498 renal = test system: A498 renal
OVCAR-8 ovarian = test system: OVCAR-8 ovarian
RXF 393 renal = test system: RXF 393 renal
A549 NSCLC = test system: A549 NSCLC
MDA-MB-231 breast = test system: MDA-MB-231 breast
HCC-2998 colon = test system: HCC-2998 colon
MCF7 breast = test system: MCF7 breast

SMILES: CC(C)CCN(CCC(C)C)CC(=O)Nc1ccc(S(=O)(=O)c2ccc(NC(=O)CN(CCC(C)C)CCC(C)C)cc2)cc1
- GI50 (NCI-H522 lung): 1.53 µM
- TGI (NCI-H522 lung): 3.2 µM
- GI50 (HT29 colon): 1.58 µM
- TGI (HT29 colon): 3.29 µM
- GI50 (NCI/ADR-RES ovarian): 2.93 µM
- TGI (NCI/ADR-RES ovarian): > 100 µM
- GI50 (NCI-H226 lung): 2.91 µM
- TGI (NCI-H226 lung): 11.5 µM
- GI50 (SF-295 CNS): 3.86 µM
- TGI (SF-295 CNS): 16.5 µM
- GI50 (OVCAR-4 ovarian): 2.56 µM
- TGI (OVCAR-4 ovarian): 12.7 µM
- GI50 (T-47D breast): 1.4 µM
- TGI (T-47D breast): 4.29 µM
- GI50 (SN12C renal): 3.1 µM
- TGI (SN12C renal): 25.2 µM
- GI50 (NCI-H460 lung): 2.07 µM
- TGI (NCI-H460 lung): 6.1 µM
- GI50 (PC-3 prostate): 2.01 µM
- TGI (PC-3 prostate): 5.89 µM
- GI50 (SR leukemia): 1.72 µM
- TGI (SR leukemia): 5.19 µM
- GI50 (MALME-3M melanoma): 1.57 µM
- TGI (MALME-3M melanoma): 3.51 µM
- GI50 (SNB-19 CNS): 2.19 µM
- TGI (SNB-19 CNS): 10.3 µM
- GI50 (TK-10 renal): 12.2 µM
- TGI (TK-10 renal): 25.5 µM
- GI50 (ACHN renal): 1.94 µM
- TGI (ACHN renal): 4.68 µM
- GI50 (CCRF-CEM leukemia): 1.06 µM
- TGI (CCRF-CEM leukemia): 3.87 µM
- GI50 (UO-31 renal): 2.07 µM
- TGI (UO-31 renal): 12.8 µM
- GI50 (KM12 colon): 1.62 µM
- TGI (KM12 colon): 3.25 µM
- GI50 (OVCAR-5 ovarian): 2.07 µM
- TGI (OVCAR-5 ovarian): 5.46 µM
- GI50 (IGROV1 ovarian): 1.64 µM
- TGI (IGROV1 ovarian): 4.5 µM
- GI50 (HL-60(TB) leukemia): 2.22 µM
- TGI (HL-60(TB) leukemia): 5.79 µM
- GI50 (M14 melanoma): 1.58 µM
- TGI (M14 melanoma): 4.01 µM
- GI50 (UACC-257 melanoma): 3.01 µM
- TGI (UACC-257 melanoma): 13.6 µM
- GI50 (SF-539 CNS): 1.57 µM
- TGI (SF-539 CNS): 3.07 µM
- GI50 (SW-620 colon): 1.55 µM
- TGI (SW-620 colon): 3.74 µM
- GI50 (NCI-H23 lung): 1.81 µM
- TGI (NCI-H23 lung): 4.84 µM
- GI50 (MOLT-4 leukemia): 2.28 µM
- TGI (MOLT-4 leukemia): 7.44 µM
- GI50 (SK-MEL-2 melanoma): 2.11 µM
- TGI (SK-MEL-2 melanoma): 6.14 µM
- GI50 (DU-145 prostate): 2.29 µM
- TGI (DU-145 prostate): 6.16 µM
- GI50 (SF-268 CNS): 1.51 µM
- TGI (SF-268 CNS): 4.68 µM
- GI50 (OVCAR-3 ovarian): 1.41 µM
- TGI (OVCAR-3 ovarian): 3.03 µM
- GI50 (SK-MEL-5 melanoma): 1.53 µM
- TGI (SK-MEL-5 melanoma): 3.05 µM
- GI50 (BT-549 breast): 1.16 µM
- TGI (BT-549 breast): 3.36 µM
- GI50 (SK-MEL-28 melanoma): 2.64 µM
- TGI (SK-MEL-28 melanoma): 9.98 µM
- GI50 (HS 578T breast): 5.37 µM
- TGI (HS 578T breast): 70.3 µM
- GI50 (SK-OV-3 ovarian): 28 µM
- TGI (SK-OV-3 ovarian): 88 µM
- GI50 (HCT-15 colon): 1.29 µM
- TGI (HCT-15 colon): 3.89 µM
- GI50 (EKVX NSCLC): 3.27 µM
- TGI (EKVX NSCLC): 18.8 µM
- GI50 (SNB-75 CNS): 13.3 µM
- TGI (SNB-75 CNS): 42 µM
- GI50 (HOP-92 NSCLC): 1.68 µM
- TGI (HOP-92 NSCLC): 3.64 µM
- GI50 (MDA-MB-435): 2.15 µM
- TGI (MDA-MB-435): 6.07 µM
- GI50 (UACC-62 melanoma): 1.55 µM
- TGI (UACC-62 melanoma): 3.52 µM
- GI50 (A498 renal): 16.5 µM
- TGI (A498 renal): 38.8 µM
- GI50 (OVCAR-8 ovarian): 2.89 µM
- TGI (OVCAR-8 ovarian): > 100 µM
- GI50 (RXF 393 renal): 1.79 µM
- TGI (RXF 393 renal): 5.87 µM
- GI50 (A549 NSCLC): 5.38 µM
- TGI (A549 NSCLC): 25.7 µM
- GI50 (MDA-MB-231 breast): 2.08 µM
- TGI (MDA-MB-231 breast): 6.39 µM
- GI50 (HCC-2998 colon): 3.2 µM
- TGI (HCC-2998 colon): 9.71 µM
- GI50 (MCF7 breast): 1.31 µM
- TGI (MCF7 breast): 11 µM
